Patent publication US7166472B2, “Method for the identification of agents that inhibit or promote cataracts and uses thereof” (The General Hospital Corporation, priority 2000, dated 2007)
Residue numbers refer to the chain shown, from its start.

Experiments:
[1] = Cyclic voltammetry of kynurenine metabolites with Cu(II); type: physicochemical; conditions: metabolite 100 μM, cupric chloride 25 μM, PBS pH 7.4
Procedure: Cyclic Voltammetry—Cyclic voltammetry was performed at room temperature (22±2° C.) on ambient solutions using an EG&G PAR potentiostat, Model 273. The potentiostat was operated in Ramp Mode, generating a potential staircase waveform with a 0.25 mV step height. The potential window of +0.15 to −0.4V, in which Cu(I) is electroactive, but the metabolites are not, was scanned in both directions at a rate of 100 mV/sec. The current response was passed through a 5.3 Hz low pass filter. A minimum of three cycles were collected for each scan, ensuring the stability of the electrochemical response. The electrochemical cell consisted of an indium/tin oxide working electrode (Delta Technologies) with an active area of 0.32 cm^2, a platinum wire auxiliary electrode, and a Ag/AgCl (1 M KCl) reference electrode (Microelectrodes Inc.). Both the auxiliary and reference electrodes were positioned in the cell in close proximity to the working electrode. The working electrodes were pretreated with successive 10 minute sonications in Alconox (˜8 g/L), 95% ethanol, Milli-Q purified H2O (2×), and PBS (pH 7.4), followed by an overnight soak in PBS (pH 7.4). The ITO electrodes were subsequently “activated” immediately prior to use by successive cycling in PBS for three cycles in each of the following potential windows: +0.15 ? −0.4 V, +0.4 ? −0.4 V, and +1.0 ? −0.4 V. Cupric chloride (25 μM; Allied Chemical) was used as the Cu(II) source. Background voltammograms were obtained on each new electrode before testing the kynurenine pathway metabolites. PBS solutions of KYN, 3-HK, ANA, and 3-HAA (each at 100 μM) were separately scanned with and without added Cu(II) (25 μM). Each experiment also included a scan of Cu(II) (25 μM) in PBS without added test compound. All solutions were tested within minutes of being prepared. Each test was repeated to ensure the reproducibility of the results.
The voltammograms in FIGS. 3A–3D compare 3-HK and 3-HAA to their corresponding non-phenolic analogs, kynurenine (KYN) and anthranilic acid (ANA), in aqueous solutions of Cu(II) at pH 7.4. […] At potentials above +0.15 V, the metabolites undergo direct irreversible oxidation, a reaction that is not considered further here. Cyclic voltammetry of Cu(II) in PBS yielded a current response at ≈−100 mV due to reduction of the metal ion (scan “b” in each panel).

[2] = Thiobarbituric acid-reactive substance (TBARS) assay for hydroxyl radical; type: biochemical; conditions: reaction with Cu(II)
Description: Although two Fenton chemistry substrates, hydrogen peroxide and reduced redox-active metal, are produced by 3-HK and 3-HAA, evidence of the hydroxyl radical was not detected using the thiobarbituric acid-reactive substance assay (Huang, X. et al., Biochem. 38:7609–7616 (1999)) (data not shown).

[3] = molecular target: T1, recombinant human αB-crystallin (Homo sapiens, UniProt P02511); assay: Recombinant human αB-crystallin cross-linking (SDS-PAGE, silver stain); type: biochemical; conditions: 5 days 37° C. dark
T1 construct: gift of Dr. J. Liang, Brigham and Women's Hospital
T1 sequence (P02511 1-175): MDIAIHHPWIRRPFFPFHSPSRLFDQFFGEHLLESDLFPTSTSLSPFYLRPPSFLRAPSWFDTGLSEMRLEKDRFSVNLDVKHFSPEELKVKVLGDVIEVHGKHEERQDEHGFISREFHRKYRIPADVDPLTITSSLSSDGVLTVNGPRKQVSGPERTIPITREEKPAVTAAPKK
Procedure: Various solutions containing 3-HK (10 μM) or other kynurenine pathway metabolites (10 μM), Cu(II)-glycine (10 μM), Fe(III)-citrate (10 μM), and triethylenetetramine (TETA, 200 μM), were added in combinations as indicated. […] After incubation, aliquots of the total lens protein solutions were mixed with sample buffer containing 4% SDS and 5% β-mercaptoethanol, heated to 95° C. for 5 minutes, and loaded at 1 μg/lane on a 10–20% Tricine gel (Novex, San Diego, Calif.). […] For the experiments with recombinant αB-crystallin, aliquots of the protein solutions were mixed with sample running buffer containing NuPAGE sample buffer (Novex, San Diego, Calif.) and 10% β-mercaptoethanol, heated to 95° C. for 5 minutes, spun briefly, then loaded on a NuPAGE 4–12% Bis-Tris polyacrylamide gel at 375 ng/lane and electrophoresed with denaturing 3-(N-morpholino)propanesulfonic acid (MOPS)-SDS running buffer according to the manufacturer's recommendations.
To exclude the effects of other lens proteins on the observed findings in FIG. 5, these interactions with purified recombinant human αB-crystallin were examined.

[4] = Superoxide assay (dihydroethidium fluorometric); type: biochemical; conditions: test compound 10 μM
Procedure: Superoxide Assay—The fluorometric assay for superoxide is based upon the dihydroethidium (DHE, HYDROETHDNE™) method (Molecular Probes, Eugene, Oreg.) and used according to the manufacturer's instructions. DHE (1 mM) was freshly prepared in 100% argon-sparged DMSO. The reaction solutions were carried out in PBS, pH 7.4, under ambient gas conditions, in 96-well format plates and contained a test compound (KYN, 3-HK, 3-HAA, and ANA, each at 10 μM), DHE (100 μM), +/− Cu(II)-glycine (1 μM) and incubated at 37EC for 60 minutes. […] Abolition of the reading by co-incubation with superoxide dismutase (1000 U/ml) was used for establishing superoxide specificity. The fluorescent readings were recorded by a Packard FLUOROCOUNT™ fluorescent plate reader with a 510 nm excitation filter and 590 nm emission filter. Potassium superoxide dissolved in degassed DMSO was used as a positive control.

α-crystallin = molecular target: T2, α-crystallin (Bos taurus, UniProt P02470+P02510); assay: α-Crystallin modification under longwave ultraviolet illumination; type: biochemical; conditions: exposure of α-crystallin in the presence of longwave ultraviolet illumination
T2 sequence (P02470 1-173): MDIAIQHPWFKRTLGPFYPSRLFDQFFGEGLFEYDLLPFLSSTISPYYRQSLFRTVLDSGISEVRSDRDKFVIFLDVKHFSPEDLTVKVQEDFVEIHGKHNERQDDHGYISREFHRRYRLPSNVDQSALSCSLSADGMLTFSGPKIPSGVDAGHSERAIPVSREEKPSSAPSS
T2 sequence (P02510 1-175): T1 sequence (P02511 1-175) with T40A, F61I, T132A, V152A

[5] = molecular target: bovine serum albumin (BSA) (Bos taurus, UniProt P02769); conditions: co-incubation with Cu(II), 5 days 37° C. dark
bovine serum albumin (BSA), sequence (P02769 25-607): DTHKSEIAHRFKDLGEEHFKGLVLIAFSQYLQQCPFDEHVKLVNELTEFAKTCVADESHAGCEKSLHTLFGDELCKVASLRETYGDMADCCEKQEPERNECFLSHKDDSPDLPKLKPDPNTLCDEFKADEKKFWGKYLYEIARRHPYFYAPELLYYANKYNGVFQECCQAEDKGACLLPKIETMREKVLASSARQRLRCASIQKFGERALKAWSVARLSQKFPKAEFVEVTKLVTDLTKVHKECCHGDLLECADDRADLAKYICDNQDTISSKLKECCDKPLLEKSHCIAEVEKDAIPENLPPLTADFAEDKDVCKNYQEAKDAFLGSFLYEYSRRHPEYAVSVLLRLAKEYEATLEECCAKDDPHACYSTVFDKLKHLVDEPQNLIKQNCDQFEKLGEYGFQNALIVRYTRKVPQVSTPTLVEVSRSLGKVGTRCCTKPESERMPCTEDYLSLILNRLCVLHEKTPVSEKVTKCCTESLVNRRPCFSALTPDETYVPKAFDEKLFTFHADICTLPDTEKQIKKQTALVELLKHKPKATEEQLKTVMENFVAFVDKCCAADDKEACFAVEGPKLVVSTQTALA

αB-crystallin = molecular target: T3, αB-crystallin (Bos taurus, UniProt P02510); assay: αB-crystallin cross-linking in total calf lens protein (Western blot); conditions: metabolite 10 μM, five days 37° C. dark
T3 sequence (P02510 1-175): T1 sequence (P02511 1-175) with T40A, F61I, T132A, V152A

capacity of altered α-crystallin to reduce metal and generate hydrogen peroxide (α-crystallin): dramatically enhanced capacity
αB-crystallin cross-linking in the presence of Cu(II) (αB-crystallin; Cu(II) 10 μM): dramatically enhanced
SMILES: Nc1c(O)cccc1C(=O)CC(N)C(=O)O (stereo not shown) [3-HK, 3-hydroxykynurenine]
Cu(II) reduction wave in presence of metabolite [1]: nearly abolished
evidence of the hydroxyl radical [2]: not detected
αB-crystallin cross-linking ([3]; metabolite 10 μM alone): apparent dimeric and higher order oligomers were observed
αB-crystallin cross-linking with Cu(II) ([3]; metabolite 10 μM and Cu(II) 10 μM): monomeric and apparent dimeric αB-crystallin species were depleted and a prominent high molecular weight smear was observed
effect of Cu(II) on superoxide generation ([4]; Cu(II)-glycine 1 μM): did not promote
superoxide production ([4]; ambient oxygen, dark, 60 minutes): negligible
BSA protein depletion with Cu(II) [5]: the monomer was depleted without emergence of apparent detectable cross-linked species
αB-crystallin cross-linking (αB-crystallin; no added Cu(II)): apparent dimers and higher order oligomers were observed
